Results on 33 molecules are retold here after ChEMBL document CHEMBL5604063, “ASAP - DENV-2 NS2B-NS3 protease fluorescence dose response” (2024).

As usually defined, the IC50 is the midpoint of a concentration-inhibition curve. Read a high IC50 as lower potency.

The test concerns the target Genome polyprotein (dengue virus type 2, UniProt P29990). It counts as functional, Thailand/16681/1984.

Where “and” joins values, the source holds several entries; their conditions need not be identical. Equal entries are not always repeated.

Chain of Genome polyprotein (P29990 1346-1475 limits assumed): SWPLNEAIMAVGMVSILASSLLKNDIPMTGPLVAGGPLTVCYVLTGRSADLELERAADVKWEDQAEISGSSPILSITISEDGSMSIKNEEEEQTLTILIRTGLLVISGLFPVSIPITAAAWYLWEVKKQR
Chain of Genome polyprotein (P29990 1476-2093 limits assumed): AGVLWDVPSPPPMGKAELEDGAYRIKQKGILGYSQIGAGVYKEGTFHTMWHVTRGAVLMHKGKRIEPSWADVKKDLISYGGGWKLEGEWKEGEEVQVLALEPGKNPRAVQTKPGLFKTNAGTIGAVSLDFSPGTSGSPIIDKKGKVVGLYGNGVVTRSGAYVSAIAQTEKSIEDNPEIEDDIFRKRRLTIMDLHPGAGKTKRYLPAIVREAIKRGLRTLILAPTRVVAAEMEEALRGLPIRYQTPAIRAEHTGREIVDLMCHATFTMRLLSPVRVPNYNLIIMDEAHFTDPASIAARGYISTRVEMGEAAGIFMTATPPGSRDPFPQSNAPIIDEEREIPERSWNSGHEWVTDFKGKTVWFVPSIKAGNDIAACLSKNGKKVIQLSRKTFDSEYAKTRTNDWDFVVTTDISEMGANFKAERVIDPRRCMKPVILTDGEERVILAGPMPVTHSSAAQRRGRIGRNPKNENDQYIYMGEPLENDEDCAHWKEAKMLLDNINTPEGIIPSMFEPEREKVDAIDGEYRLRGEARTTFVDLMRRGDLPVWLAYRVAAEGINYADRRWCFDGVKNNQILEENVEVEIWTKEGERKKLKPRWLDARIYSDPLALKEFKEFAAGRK

As to `CCn1nc(C)c(CN(C)Cc2ccc3c(c2)CCNCC3)c1C`, the half-inhibitory concentration (IC50) is above 99.5 µM.

`CCc1cc(F)ccc1CC(=O)N1CCCc2cc(CCN)ccc21` showed an IC50 above 99.5 µM. `Cn1cc(C(=O)N[C@@H](C(=O)Nc2cccc(CN)c2)c2ccc(OCc3ccccc3)cc2)cn1` returned an IC50 above 99.5 µM. `N[C@H]1CCc2cc(-c3ccn(-c4ccccc4)n3)ccc2C1` showed a half-inhibitory concentration (IC50) above 99.5 µM. `Cc1ccc(F)c2c1CCN(Cc1ccn(C3CNC3)c1)C2` gave an IC50 above 99.5 µM. On to `CC(C)(C)c1cc(N2CCN(c3cccc4[nH]ncc34)CC2)nc(C(=O)O)n1`, for which the IC50 is above 99.5 µM. As for `O=C(N[C@@H](C(=O)NCc1cn[nH]c1)c1ccc(OCc2ccccc2)cc1)OCc1ccccc1`, the figure is above 99.5 µM; as for `Cc1cccnc1COc1ccc(S(=O)(=O)Nc2ccc(Cl)cc2C(=O)O)cc1`, above 99.5 µM. As for `O=C(N[C@@H](C(=O)NCc1cnccn1)c1ccc(OCc2ccccc2)cc1)OCc1ccccc1`, the figure is above 99.5 µM; as for `N#Cc1c(C(F)F)cccc1N1CCC(n2ncc(N)c2C(F)(F)F)CC1`, above 99.5 µM; as for `N[C@H]1CC[C@H](NC(=O)[C@@H](NC(=O)OCc2ccccc2)c2ccc(OCc3ccccc3)cc2)CC1`, above 99.5 µM. `NCc1ccnc(CNC(=O)[C@@H](NC(=O)OCc2ccccc2)c2ccc(OCc3ccccc3)cc2)c1` registered an IC50 above 99.5 µM. In the case of `NCc1cccc(NC(=O)[C@@H]2Cc3ccc(OCc4ccccc4)cc3CN2C(=O)OCc2ccccc2)c1`, 86.7 µM corresponded to half-maximal inhibition (IC50). As for `NCC1(c2ccc(C(=O)N3CCc4scc(Br)c4C3)cc2)CC1`, the figure is above 99.5 µM; as for `NCc1cccc(CNC(=O)[C@@H](NC(=O)OCc2ccccc2)c2ccc(OCc3ccccc3)cc2)n1`, above 99.5 µM; as for `Cc1ccc(CNC(=O)[C@@H](NC(=O)OCc2ccccc2)c2ccc(OCc3ccccc3)cc2)cn1`, above 99.5 µM. As for `CC(C)CNC(=O)c1cc(Cl)ccc1C=Cc1ccc(Oc2ccccc2Cl)cc1`, the figure is above 99.5 µM. Then `NCc1ccc(CNC(=O)[C@@H](NC(=O)OCc2ccccc2)c2ccc(OCc3ccccc3)cc2)cc1`, with 16 µM and 8.53 µM and 8.03 µM; and `NCc1ccccc1C1CCN(C(=O)[C@@]23CNC[C@]2(C(F)(F)F)C3)CC1`, with above 99.5 µM; and `O=C(N[C@H](C(=O)NCc1ccccc1CO)c1ccc(OCc2ccccc2)cc1)OCc1ccccc1`, with above 99.5 µM. As for `O=C(NC1CCCCC1)c1cc(Cl)ccc1NS(=O)(=O)c1ccc(Oc2ccccc2Cl)cc1`, the IC50 was determined as 13.7 µM. Turning to `NCc1cccc(NC(=O)[C@H]2c3ccc(Br)cc3OCCN2C(=O)OCc2ccccc2)c1`, the half-maximal inhibitory concentration (IC50) was above 99.5 µM. Then `NC[C@H]1CC[C@@H](CNC(=O)[C@@H](NC(=O)OCc2ccccc2)c2ccc(OCc3ccccc3)cc2)CC1`, with 85.6 µM; and `CCCCCN(C)C(=O)c1cc(Cl)ccc1NS(=O)(=O)c1ccc(Oc2ccccc2Cl)cc1`, with 17.8 µM; and `CN(C)CCc1ccc(CNC(=O)[C@@H](NC(=O)OCc2ccccc2)c2ccc(OCc3ccccc3)cc2)cc1`, with above 99.5 µM. As for `O=C(N[C@H](C(=O)NCc1cccc(CO)n1)c1ccc(OCc2ccccc2)cc1)OCc1ccccc1`, the figure is above 99.5 µM; as for `O=C(N[C@@H](C(=O)NCc1cccc2c1CCNC2)c1ccc(OCc2ccccc2)cc1)OCc1ccccc1`, 53.5 µM. Then `C[C@@H](NC(=O)C1CCN(c2cccc(C(N)=O)n2)CC1)[C@H]1CCCNC1`, with above 99.5 µM; and `NC[C@H]1CC[C@H](NC(=O)[C@@H](NC(=O)OCc2ccccc2)c2ccc(OCc3ccccc3)cc2)CC1`, with above 99.5 µM; and `CCN(CC(=O)NC)C(=O)c1cc(Cl)ccc1NS(=O)(=O)c1ccc(Oc2ccccc2Cl)cc1`, with 70 µM.

The molecule `NCc1ccc2c(c1)CCC[C@H]2NCc1cc(Cl)cc2c1OCC2` showed an IC50 above 99.5 µM.

Consider `NC[C@H]1CC[C@H](CNC(=O)[C@@H](NC(=O)OCc2ccccc2)c2ccc(OCc3ccccc3)cc2)CC1`, for which the IC50 was above 99.5 µM. Then `O=S(=O)(Nc1ccc(Cl)cc1CN(CC1CC1)CC1CC1)c1ccc(Oc2ccccc2Cl)cc1`, with 67.1 µM.
